US20110123470A1, “NATURAL BIOACTIVE COMPOUNDS” (Aquapharm Bio-Discovery Ltd., priority 2007, published 2011)
pIC50: −log10 of the molar value. ≈ marks a conversion by molar mass, not a printed value.

Key:
[1] = tested on: anti-oxidant response element (ARE); assay: Antioxidant elicitation assay (ARE-driven luciferase activity) in reporter cell line ARE32; assay type: cell-based; conditions: ARE32 cells
Procedure: The cell line ARE32 was incubated with eight concentrations of P1639C and the positive control tert-butylhydroquinone (tBHQ) for 24 hours, and the luciferase activity measured (Luciferase Assay System, Promega). P1639C enhanced induction of ARE-driven luciferase activity up to 18-fold (at a concentration of 30 μM) (FIG. 2b) compared with normal cells without any oxidative induction.
The ARE comparison was also carried out between p1639C (5-hexyl-2(5H)-furanone), 4-decanolide (5-hexyl-2(3H)-furanone) and 2(5H)-furanone.

[2] = tested on: Candida albicans; assay: Antifungal activity assay (MIC) in PDA media; assay type: cell-based; conditions: for C. albicans (MIC): PDA media containing 0.2% yeast extract
Procedure: (§1) Candida albicans and Malassezia furfur were used to carry out the antifungal assay in Potato Dextrose Agar (PDA) media containing 0.2% yeast extract. The Minimum Inhibitory Concentration (MIC) was recorded (Table 1).

[3] = tested on: Malassezia furfur; assay: Antifungal activity assay (MIC) in PDA media; assay type: cell-based; conditions: for M. furfur (MIC): PDA media containing 0.2% yeast extract
Procedure: as §1

[4] = tested on: MRSA; assay: Antimicrobial activity against MRSA; assay type: cell-based
[5] = tested on: human hepatocytes
Procedure: The toxicology assay was carried out using an in vitro human hepatocytes model where human hepatocytes were exposed to varying concentrations of compound [MUT] as well as tamoxifen and chlorpromazine for three hours.

[6] = tested on: mammalian cell culture; assay: Cell viability (resazurin) coupled with the NFκB assay; assay type: cell-based; conditions: concentrations of the NF-κB assay
Procedure: (§2) Anti-inflammatory assay was carried out based on the NFκB expression and IKKβ activity. NFκB expression was tested using PRINCESS® NINA NFκB Assay Kit. P1639C and other related lactone compounds were supplemented to a mammalian cell culture in which NFκB has been stimulated by TNF-α. The assay was also coupled with an in vitro cell toxicity assay. IKKβ was tested using 5-20 mU of IKKβ, which was diluted in 50 mM Tris (pH 7.5), 0.1 mM EGTA, 1 mg/ml BSA, 0.1%, b-Mercaptoethanol. The kinase is assayed against substrate peptide (LDDRHDSGLDSMKDEEY) in a final volume of 25.5 μl containing 50 mM Tris (pH 7.5), 0.1 mM EGTA, 0.1%, b-Mercaptoethanol, 300 μM substrate peptide, 10 mM magnesium acetate and 0.005 mM [33P-g-ATP] (500-1000 cpm/pmole) and incubated for 30 mins at room temperature. Assays are stopped by addition of 50 of 0.5M (3%) orthophosphoric acid. The phosphorylated peptide was harvested on a p81 filterplate and the phosphorylation level was measured by scintillation counts.
Cell viability was carried out by incubation of the cells with resazurin and measuring the absorption at 600 nm against a reference measurement of above 650 nm.

[7] = target: T1, IKKβ (Homo sapiens, UniProt O14920); assay: IKKβ kinase assay (33P phosphorylation of substrate peptide); assay type: biochemical; conditions: 50 μM
T1 sequence (O14920 1-756): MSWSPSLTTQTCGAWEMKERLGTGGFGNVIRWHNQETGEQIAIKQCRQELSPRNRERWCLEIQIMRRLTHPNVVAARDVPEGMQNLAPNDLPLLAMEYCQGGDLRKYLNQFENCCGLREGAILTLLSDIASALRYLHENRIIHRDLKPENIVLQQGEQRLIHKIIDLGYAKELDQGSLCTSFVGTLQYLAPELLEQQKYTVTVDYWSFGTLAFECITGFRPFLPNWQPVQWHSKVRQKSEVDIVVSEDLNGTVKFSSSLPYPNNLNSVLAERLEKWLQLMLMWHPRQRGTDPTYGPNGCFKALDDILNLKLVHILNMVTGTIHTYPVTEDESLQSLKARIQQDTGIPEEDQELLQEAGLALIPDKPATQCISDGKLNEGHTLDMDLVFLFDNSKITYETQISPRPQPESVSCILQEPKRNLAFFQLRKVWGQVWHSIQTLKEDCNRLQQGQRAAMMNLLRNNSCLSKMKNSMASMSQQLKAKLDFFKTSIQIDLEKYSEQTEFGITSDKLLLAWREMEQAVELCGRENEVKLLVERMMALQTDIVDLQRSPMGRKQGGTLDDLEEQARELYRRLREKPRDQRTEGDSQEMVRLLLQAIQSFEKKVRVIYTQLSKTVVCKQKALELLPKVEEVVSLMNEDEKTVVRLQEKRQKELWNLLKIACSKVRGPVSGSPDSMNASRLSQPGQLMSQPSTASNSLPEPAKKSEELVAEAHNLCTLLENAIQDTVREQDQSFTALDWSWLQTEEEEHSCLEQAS
Procedure: as §2

[8] = tested on: NF-κB; assay: Anti-inflammatory assay: NFκB activity in TNF-α stimulated mammalian cell culture (PRINCESS NINA NFκB Assay Kit); assay type: cell-based
Procedure: as §2
P1639C was supplemented to the mammalian cell culture with a series of concentration at 0.001 mM, 0.002 mM, 0.005 mM, 0.01 mM, 0.02 mM, 0.05 mM, 0.1 mM, 0.2 mM and 0.5 mM. SEAP provided in the Princess NINA kit was used as a stimulatory control to show normal inflammatory response in cells, whereas BAY11-7082 at a final concentration of 5 μM was used as the positive control of inhibited NF-κB activity. The cell with TNF-α was used as the negative control. The cell response to the supplemented compounds was measured by the 450 nm emission (360 nm excitation) after addition of inactivation buffer and MUP solution.

Structure (SMILES)	C. albicans (MIC) [2]	M. furfur (MIC) [3]	MRSA (antimicrobial activity) [4]	depletion of intracellular ATP (level of toxicity) [5]	other results
O=C1C=CCO1 [2(5H)-furanone]	>10 µg	>10 µg	>20 µg		anti-oxidant elicitation effect (ARE-driven gene expression) ([1]; comparison of FIG. 8): did not show significant anti-oxidant elicitation effects
CC1=CCOC1=O [3-methy1-2(5H)-furanone]	5 to 7 µg	5 to 6 µg	>20 µg		
CC1=CCC(=O)O1 [5-methyl-2(3H)-furanone]	5 to 7 µg	5 to 7 µg	>20 µg		
CC1C=CC(=O)O1 (stereo not drawn) [5-methyl-2(5H)-furanone]	5 to 7 µg	5 to 7 µg	>20 µg		
CCCCCCC1C=CC(=O)O1 (stereo not drawn) [P1639C, 5-hexylfuran-2(5H)-one]	1 to 1.5 µg	<1 µg	>10 µg	significant ATP depletion was not observed	induction of ARE-driven luciferase activity ([1]; 30 μM, 24 hours, compared with normal cells without oxidative induction): up to 18 fold; cytotoxicity against the testing cells [6]: no significant cytotoxicity; MIC ([2]; Candida albicans, read-out: MIC against C. albicans): 1 to 1.5 µg/mL (≈ 5.94 to 8.92 µM); MIC ([3]; Malassezia furfur, read-out: MIC against M. furfur): 0.8 µg/mL (≈ 4.76 µM); IKKβ phosphorylation activity decreased to [7]: 64%±2%; NF-κB inhibition activity, comparison with known butenolides ([8]; 0.05 mM): the only active compound; inhibition of NF-κB mediated inflammatory response ([8]; 0.5 mM): almost fully inhibited; pIC50 ([8]; TNF-α elicited response = 100%, read-out: concentration inhibiting 50% of the NF-κB mediated inflammatory response): 4.70
CN(C)CCCN1c2ccccc2Sc2ccc(Cl)cc21 [chlorpromazine]				moderate decreasing rate of intracellular ATP level	
CC/C(=C(\c1ccccc1)c1ccc(OCCN(C)C)cc1)c1ccccc1 [tamoxifen]				moderate decreasing rate of intracellular ATP level	
